Experimental data published in patent US10323022B2, “Pyrrolidinyl urea, pyrrolidinyl thiourea and pyrrolidinyl guanidine compounds as TrkA kinase inhibitors” (Array BioPharma Inc., priority 2011, dated 2019).

Each compound was assayed against TrkA (Homo sapiens (Human), UniProt P04629) (assay: TrkA Omnia Assay). Conditions: averaged IC50; 20 nM enzyme, 500 μM ATP, 10 μM peptide substrate.
Assay type: biochemical
In short: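 Recombinant TrkA (20 nM) preincubated 10 min at ambient temperature with compound, then Omnia Tyr Peptide #4 (10 μM) and ATP (500 μM) added in 25 mM MOPS pH 7.5, 5 mM MgCl2, 0.005% Triton X-100. Fluorescence (ex 360/em 485 nm) followed continuously for 70 min; IC50 from initial rates by 4- or 5-parameter logistic fit.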

Chain of TrkA (P04629 33-796): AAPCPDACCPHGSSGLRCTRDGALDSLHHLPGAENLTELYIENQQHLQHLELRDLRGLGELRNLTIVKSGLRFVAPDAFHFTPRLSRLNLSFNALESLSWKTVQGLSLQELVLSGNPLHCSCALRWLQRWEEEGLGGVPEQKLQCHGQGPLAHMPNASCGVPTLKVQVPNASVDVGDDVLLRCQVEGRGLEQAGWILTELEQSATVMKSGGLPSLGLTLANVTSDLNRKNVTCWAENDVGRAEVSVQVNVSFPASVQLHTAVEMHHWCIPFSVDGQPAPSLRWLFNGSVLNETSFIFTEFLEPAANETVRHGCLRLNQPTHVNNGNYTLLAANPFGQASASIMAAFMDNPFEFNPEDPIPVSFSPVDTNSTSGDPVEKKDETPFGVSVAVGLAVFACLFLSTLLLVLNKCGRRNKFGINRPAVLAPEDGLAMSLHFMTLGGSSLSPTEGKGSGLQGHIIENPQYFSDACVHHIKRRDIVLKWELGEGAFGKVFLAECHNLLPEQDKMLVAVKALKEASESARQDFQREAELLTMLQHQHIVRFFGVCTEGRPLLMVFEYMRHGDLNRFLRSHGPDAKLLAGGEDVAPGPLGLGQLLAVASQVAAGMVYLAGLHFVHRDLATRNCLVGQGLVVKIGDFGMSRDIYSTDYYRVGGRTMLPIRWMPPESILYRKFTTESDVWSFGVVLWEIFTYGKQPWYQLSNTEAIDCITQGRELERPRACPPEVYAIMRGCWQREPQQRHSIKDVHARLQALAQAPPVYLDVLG

IC50 | SMILES
< 100 nM | Cc1c(OC[C@H](O)CO)nn(-c2ccccc2)c1NC(=O)N[C@H]1CN(CC(F)(F)F)C[C@@H]1c1ccccc1 [Example 272, 1-(3-((R)-2,3-dihydroxvpropoxy)-4-methyl-1-phenyl-1H-pyrazol-5-yl)-3-((3R,4S)-4-phenyl-1-(2,2,2-trifluoroethyl)pyrrolidin-3-yl)urea]
100 to 1000 nM | C[C@@H]1C(NC(=O)Nc2c3c(nn2-c2ccccc2)CCC3)[C@H](c2ccccc2)CN1CC(F)(F)F (stereo partly drawn) [Example 273, (R,S)1-((2α,3β,4α)-2-methyl-4-phenyl-1-(2,2,2-trifluoroethyl)pyrrolidin-3-yl)-3-(2-phenyl-2,4,5,6-tetrahydrocyclopenta[c]pyrazol-3-yl)urea]
100 to 1000 nM | C[C@H]1[C@@H](c2ccccc2)C(NC(=O)Nc2c3c(nn2-c2ccccc2)CCC3)CN1CC(F)(F)F (stereo partly drawn) [Example 274, (R,S)-1-((3β,4α,5α)-5-methyl-4-phenyl-1-(2,2,2-trifluoroethyl)pyrrolidin-3-yl)-3-(2-phenyl-2,4,5,6-tetrahydrocyclopenta[c]pyrazol-3-yl)urea]
100 to 1000 nM | CCOc1nn(-c2ccccc2)c(NC(=O)N[C@@H]2CN([C@@H](CO)C(F)(F)F)C[C@H]2c2ccc(F)c(F)c2)c1C [Example 275, 1-((3S,4R)-4-(3,4-difluorophenyl)-1-((S)-1,1,1-trifluoro-3-hydroxypropan-2-yl)pyrrolidin-3-yl)-3-(3-ethoxv-4-methyl-1-phenyl-1H-pyrazol-5-yl)urea]
< 100 nM | CCOc1nn(-c2ccccc2)c(NC(=O)N[C@@H]2CN([C@@H](COC)C(F)(F)F)C[C@H]2c2ccc(F)c(F)c2)c1C [Example 276, 1-((3S,4R)-4-(3,4-difluorophenyl)-1-((S)-1,1,1-trifluoro-3-methoxypropan-2-yl)pyrrolidin-3-yl)-3-(3-ethoxv-4-methyl-1-phenyl-1H-pyrazol-5-yl)urea]
< 100 nM | COC[C@H](N1C[C@@H](NC(=O)Nc2c(C)c(OC[C@H](C)O)nn2-c2ccccc2)[C@H](c2ccc(F)c(F)c2)C1)C(F)(F)F [Example 277, 1-((3S,4R)-4-(3,4-difluorophenyl)-1-((S)-1,1,1-trifluoro-3-methoxypropan-2-yl)pyrrolidin-3-yl)-3-(3-((S)-2-hydroxypropoxy)-4-methyl-1-phenyl-1H-pyrazol-5-yl)urea]
< 100 nM | COC[C@@H](N1C[C@@H](NC(=O)Nc2c(Cl)c(-c3cnn(C)c3)nn2-c2ccccc2)[C@H](c2ccc(F)c(F)c2)C1)C(F)(F)F [Example 278, 1-(4-chloro-1′-methyl-1-phenyl-1H, 1′H-3,4′-bipyrazol-5-yl)-3-((3S,4R)-4-(3,4-difluorophenyl)-1-((R)-1,1,1-trifluoro-3-methoxypropan-2-yl)pyrrolidin-3-yl)urea]
100 to 1000 nM | COC[C@@H](N1C[C@@H](NC(=O)Nc2c(C)c(OC[C@H](C)O)nn2-c2ccccc2)[C@H](c2ccc(F)c(F)c2)C1)C(F)(F)F [Example 279, 1-((3S,4R)-4-(3,4-difluorophenyl)-1-((R)-1,1,1-trifluoro-3-methoxypropan-2-yl)pyrrolidin-3-yl)-3-(3-((S)-2-hydroxypropoxy)-4-methyl-1-phenyl-1H-pyrazol-5-yl)urea]
< 100 nM | COCCCc1nn(-c2ccccc2)c(NC(=O)N[C@@H]2CN(CCOC)C[C@H]2c2cc(F)cc(F)c2)c1C [Example 281, 1-((3S,4R)-4-(3,5-difluorophenyl)-1-(2-methoxyethyl)pyrrolidin-3-yl)-3-(3-(3-methoxypropyl)-4-methyl-1-phenyl-1H-pyrazol-5-yl)urea]
< 100 nM | COCCN1C[C@@H](NC(=O)Nc2c(C)c(C(F)(F)CO)nn2-c2ccccc2)[C@H](c2ccc(F)c(F)c2)C1 [Example 282, 1-(3-(1,1-difluoro-2-hydroxyethyl)-4-methyl-1-phenyl-1H-pyrazol-5-yl)-3-((3S,4R)-4-(3,4-difluorophenyl)-1-(2-methoxyethyl)pyrrolidin-3-yl)urea]
< 100 nM | COCCN1C[C@@H](NC(=O)Nc2c(C)c(C(F)(F)CO)nn2-c2ccccc2)[C@H](c2cc(F)cc(F)c2)C1 [Example 283, 1-(3-(1,1-difluoro-2-hydroxyethyl)-4-methyl-1-phenyl-1H-pyrazol-5-yl)-3-((3S,4R)-4-(3,5-difluorophenyl)-1-(2-methoxyethyl)pyrrolidin-3-yl)urea]
< 100 nM | COCCN1C[C@@H](NC(=O)Nc2c(C)c(C(F)(F)CO)nn2-c2ccccc2)[C@H](c2ccc(F)cc2)C1 [Example 284, 1-(3-(1,1-difluoro-2-hydroxyethyl)-4-methyl-1-phenyl-1H-pyrazol-5-yl)-3-((3S,4R)-4-(4-fluorophenyl)-1-(2-methoxyethyl)pyrrolidin-3-yl)urea]
< 100 nM | COCCN1C[C@@H](NC(=O)Nc2cc(C(F)(F)CO)nn2-c2ccccc2)[C@H](c2ccc(F)c(F)c2)C1 [Example 285, 1-(3-(1,1-difluoro-2-hydroxyethyl)-1-phenyl-1H-pyrazol-5-yl)-3-((3S,4R)-4-(3,4-difluorophenyl)-1-(2-methoxyethyl)pyrrolidin-3-yl)urea]
< 100 nM | COCCN1C[C@@H](NC(=O)Nc2c(C)c(CCO)nn2-c2ccccc2)[C@H](c2cc(F)cc(F)c2)C1 [Example 286, 1-((3S,4R)-4-(3,5-difluorophenyl)-1-(2-methoxyethyl)pyrrolidin-3-yl)-3-(3-(2-hydroxyethyl)-4-methyl-1-phenyl-1H-pyrazol-5-yl)urea]
< 100 nM | COCCN1C[C@@H](NC(=O)Nc2c(C)c(CCO)nn2-c2ccccc2)[C@H](c2ccc(F)cc2)C1 [Example 287, 1-((3S,4R)-4-(4-fluorophenyl)-1-(2-methoxyethyl)pyrrolidin-3-yl)-3-(3-(2-hydroxyethyl)-4-methyl-1-phenyl-1H-pyrazol-5-yl)urea]
< 100 nM | COCCN1C[C@@H](NC(=O)Nc2c(C)c(CC(C)(C)O)nn2-c2ccccc2)[C@H](c2ccc(F)c(F)c2)C1 [Example 288, 1-((3S,4R)-4-(3,4-difluorophenyl)-1-(2-methoxyethyl)pyrrolidin-3-yl)-3-(3-(2-hydroxy-2-methylpropyl)-4-methyl-1-phenyl-1H-pyrazol-5-yl)urea]
< 100 nM | COCCN1C[C@@H](NC(=O)Nc2c(C)c(C[C@H](C)O)nn2-c2ccccc2)[C@H](c2ccc(F)c(F)c2)C1 [Example 289, 1-((3S,4R)-4-(3,4-difluorophenyl)-1-(2-methoxyethyl)pyrrolidin-3-yl)-3-(3-((S)-2-hydroxypropyl)-4-methyl-1-phenyl-1H-pyrazol-5-yl)urea]
< 100 nM | COCCN1C[C@@H](NC(=O)Nc2c(C)c(C[C@@H](C)O)nn2-c2ccccc2)[C@H](c2ccc(F)c(F)c2)C1 [Example 290, 1-((3S,4R)-4-(3,4-difluorophenyl)-1-(2-methoxyethyl)pyrrolidin-3-yl)-3-(3-((R)-2-hydroxypropyl)-4-methyl-1-phenyl-1H-pyrazol-5-yl)urea]
< 100 nM | CCOC(=O)c1nn(-c2ccccc2)c(NC(=O)N[C@@H]2CN(CCOC)C[C@H]2c2ccc(F)c(F)c2)c1C [Example 291, ethyl 5-(3-((3S,4R)-4-(3,4-difluorophenyl)-1-(2-methoxyethyl)pyrrolidin-3-yl)ureido)-4-methyl-1-phenyl-1H-pyrazole-3-carboxylate]
< 100 nM | CNC(=O)c1nn(-c2ccccc2)c(NC(=O)N[C@@H]2CN(CCOC)C[C@H]2c2ccc(F)cc2)c1C [Example 292, 5-(3-((3S,4R)-4-(4-fluorophenyl)-1-(2-methoxyethyl)pyrrolidin-3-yl)ureido)-N,4-dimethyl-1-phenyl-1H-pyrazole-3-carboxamide]
< 100 nM | COCCN1C[C@@H](NC(=O)Nc2c(C)c(-c3nnc(C)o3)nn2-c2ccccc2)[C@H](c2ccc(F)c(F)c2)C1 [Example 297, 1-((3S,4R)-4-(3,4-difluorophenyl)-1-(2-methoxyethyl)pyrrolidin-3-yl)-3-(4-methyl-3-(5-methyl-1,3,4-oxadiazol-2-yl)-1-phenyl-1H-pyrazol-5-yl)urea]
< 100 nM | COCCN1C[C@@H](NC(=O)Nc2c(C)c(-c3nc(C)no3)nn2-c2ccccc2)[C@H](c2ccc(F)c(F)c2)C1 [Example 298, 1-((3S,4R)-4-(3,4-difluorophenyl)-1-(2-methoxyethyl)pyrrolidin-3-yl)-3-(4-methyl-3-(3-methyl-1,2,4-oxadiazol-5-yl)-1-phenyl-1H-pyrazol-5-yl)urea]
< 100 nM | COCCN1C[C@@H](NC(=O)Nc2c(C)c(-c3nc(C(F)(F)F)no3)nn2-c2ccccc2)[C@H](c2ccc(F)c(F)c2)C1 [Example 299, 1-((3S,4R)-4-(3,4-difluorophenyl)-1-(2-methoxyethyl)pyrrolidin-3-yl)-3-(4-methyl-1-phenyl-3-(3-(trifluoromethyl)-1,2,4-oxadiazol-5-yl)-1H-pyrazol-5-yl)urea]
< 100 nM | COCCN1C[C@@H](NC(=O)Nc2c(C)c(-c3nc(C(F)(F)F)no3)nn2-c2ccccc2)[C@H](c2ccc(F)cc2)C1 [Example 300, 1-((3S,4R)-4-(4-fluorophenyl)-1-(2-methoxyethyl)pyrrolidin-3-yl)-3-(4-methyl-1-phenyl-3-(3-(trifluoromethyl)-1,2,4-oxadiazol-5-yl)-1H-pyrazol-5-yl)urea]
< 100 nM | COCCN1C[C@@H](NC(=O)Nc2c(C)c(-c3cc(C)n(C)n3)nn2-c2ccccc2)[C@H](c2ccc(F)c(F)c2)C1 [Example 305, 1-((3S,4R)-4-(3,4-difluorophenyl)-1-(2-methoxyethyl)pyrrolidin-3-yl)-3-(1′,4,5′-trimethyl-1-phenyl-1H,1′H-[3,3′-bipyrazol]-5-yl)urea]
< 100 nM | COCCN1C[C@@H](NC(=O)Nc2c(C)c(-c3cc(C)n(C)n3)nn2-c2ccccc2)[C@H](c2cc(F)cc(F)c2)C1 [Example 306, 1-((3S,4R)-4-(3,5-difluorophenyl)-1-(2-methoxyethyl)pyrrolidin-3-yl)-3-(1′,4,5′-trimethyl-1-phenyl-1H,1′H-[3,3′-bipyrazol]-5-yl)urea]
